Values joined by “and” are separate entries in the source; they are usually repeats but may differ in a detail not shown here. Equal values may be shown once. Read-outs that look alike come from different tables or passages of the source.
Tests used:
[1] = tested on: oxytocin-induced uterine contractility; details: murine model, preliminary work by the group; ref [10]; cited from earlier work
[2] = Progesterone metabolism in pooled human liver microsomes
recombinant human CYP3A5 = recombinant human CYP3A5 (Homo sapiens, UniProt P20815); details: recombinant enzyme, pH 7.4
recombinant CYP2A6 = molecular target: T1, recombinant CYP2A6 (Homo sapiens, UniProt P11509); test: Progesterone incubation with recombinant CYP2A6; type: in vitro ADME; details: recombinant CYP2A6, data not shown
T1 sequence (P11509 1-494): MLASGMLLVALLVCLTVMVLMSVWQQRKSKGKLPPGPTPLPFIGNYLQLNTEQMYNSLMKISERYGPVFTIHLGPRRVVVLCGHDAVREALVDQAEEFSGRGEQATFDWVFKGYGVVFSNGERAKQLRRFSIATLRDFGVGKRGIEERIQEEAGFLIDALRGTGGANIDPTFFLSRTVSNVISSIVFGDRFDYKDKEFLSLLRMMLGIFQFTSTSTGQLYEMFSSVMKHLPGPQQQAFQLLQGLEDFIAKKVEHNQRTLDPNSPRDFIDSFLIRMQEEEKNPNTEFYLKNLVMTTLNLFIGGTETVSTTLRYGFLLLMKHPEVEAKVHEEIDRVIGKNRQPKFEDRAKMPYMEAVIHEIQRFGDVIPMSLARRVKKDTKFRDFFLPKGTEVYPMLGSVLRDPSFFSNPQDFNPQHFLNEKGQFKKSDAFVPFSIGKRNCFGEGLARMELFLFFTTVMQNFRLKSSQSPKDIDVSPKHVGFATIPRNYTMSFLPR

[3] = human, microsomes, pH 7.4
[4] = molecular target: T2, recombinant CYP19A1 (aromatase) (Homo sapiens, UniProt P11511); test: Progesterone incubation with recombinant CYP19A1; type: in vitro ADME; details: progesterone 100 μM, CYP19A1 25 pmol, data not shown
T2 sequence (P11511 1-503): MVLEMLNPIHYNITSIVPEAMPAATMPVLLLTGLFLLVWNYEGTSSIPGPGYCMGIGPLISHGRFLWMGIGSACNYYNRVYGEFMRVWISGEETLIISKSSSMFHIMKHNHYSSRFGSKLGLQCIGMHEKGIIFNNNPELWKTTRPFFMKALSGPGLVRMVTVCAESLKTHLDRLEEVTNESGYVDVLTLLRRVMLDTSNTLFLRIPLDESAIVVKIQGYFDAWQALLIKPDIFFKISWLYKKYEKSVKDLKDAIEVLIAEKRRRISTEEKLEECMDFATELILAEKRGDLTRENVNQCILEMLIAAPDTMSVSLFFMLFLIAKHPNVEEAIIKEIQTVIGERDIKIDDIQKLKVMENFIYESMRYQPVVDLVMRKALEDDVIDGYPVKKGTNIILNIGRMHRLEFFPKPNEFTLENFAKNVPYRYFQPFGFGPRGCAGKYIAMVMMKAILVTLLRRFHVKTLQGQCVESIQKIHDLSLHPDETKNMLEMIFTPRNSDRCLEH

[5] = In vitro in vivo extrapolation to maternal liver; parameters: species or system human
CYP17A1 = details: microsomes from CYP17A1-transfected COS1 cells; ref [11]; cited from earlier work
[6] = In vitro in vivo extrapolation to fetal liver; parameters: species or system human
in vitro = details: human
recombinant human CYP3A4 = recombinant human CYP3A4 (Homo sapiens, UniProt P08684); details: pH 7.4
not read = substrate: CC(=O)[C@H]1CC[C@H]2[C@@H]3CCC4=CC(=O)CC[C@]4(C)[C@H]3CC[C@]12C; test: not read; details: other: rCYP3A5 20 pmol, progesterone 20–250 μM; mean ± SE (95% CI); pH 7.4
[7] = substrate: CC(=O)[C@H]1CC[C@H]2[C@@H]3CCC4=CC(=O)CC[C@]4(C)[C@H]3CC[C@]12C
[8] = Maternal, CYP3A5*0*0 (nonexpresser)
[9] = HLMs 0.5 mg/mL, progesterone 20–250 μM, 30 min, mean ± SE
[10] = Fetal, CYP3A5*0*0 (nonexpresser)

recombinant human CYP3A4, sequence (P08684 2-503 limits assumed): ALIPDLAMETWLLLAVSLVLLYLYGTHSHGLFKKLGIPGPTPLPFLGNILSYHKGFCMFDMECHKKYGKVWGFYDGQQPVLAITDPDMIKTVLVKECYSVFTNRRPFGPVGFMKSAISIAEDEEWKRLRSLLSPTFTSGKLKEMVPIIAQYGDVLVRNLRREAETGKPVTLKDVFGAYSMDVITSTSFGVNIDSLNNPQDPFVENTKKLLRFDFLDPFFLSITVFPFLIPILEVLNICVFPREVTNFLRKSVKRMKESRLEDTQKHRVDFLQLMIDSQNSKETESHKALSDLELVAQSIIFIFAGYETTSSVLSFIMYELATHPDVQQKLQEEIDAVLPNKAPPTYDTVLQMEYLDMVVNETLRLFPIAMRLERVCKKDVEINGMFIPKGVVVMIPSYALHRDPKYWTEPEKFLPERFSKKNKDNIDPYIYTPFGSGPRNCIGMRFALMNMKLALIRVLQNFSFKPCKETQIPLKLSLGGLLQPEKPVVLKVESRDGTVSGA

In the case of `CC(=O)[C@H]1CC[C@H]2[C@@H]3C[C@@H](O)C4=CC(=O)CC[C@]4(C)[C@H]3CC[C@]12C` [6β-OHP, 6β-hydroxyprogesterone], the “effect on oxytocin-induced uterine contractility frequency” value [1] is given as “increased” and the “further metabolism on incubation with HLMs” value ([2]; metabolite incubated with HLMs, data not shown) is given as “did not yield additional metabolism products”.

For `CC(=O)[C@H]1[C@H](O)C[C@H]2[C@@H]3CCC4=CC(=O)CC[C@]4(C)[C@H]3CC[C@@]21C` [16α-OHP, 16α-hydroxyprogesterone], the “effect on oxytocin-induced uterine contractility frequency” value [1] is given as “decreased”.

In the case of `CC(=O)[C@H]1CC[C@H]2[C@@H]3CCC4=CC(=O)CC[C@]4(C)[C@H]3CC[C@]12C` [progesterone, Progesterone], the “activity (CLint) for 6β-OHP, CYP3A5 relative to CYP3A7” value (recombinant human CYP3A5) is reported as 23 fold, the metabolite formation (recombinant CYP2A6) is reported as “did not produce detectable metabolites” and the “intrinsic clearance (CLint), 6β-OHP formation” value [3] is reported as 59.2 μL/min/mg protein. For the same molecule, the “formation of 6β-OHP and 16α-OHP metabolites” value [4] was “minimal formation”, the “6β-OHP CLf” value [5, 8] was 624 L/h and the “16α-OHP CLf” value [5, 8] was 346 L/h. The “CLint, H” value [5, 8] was 970 L/h, the “6β-OHP formation relative to 16α-OHP” value ([5]; maternal, CYP3A5 expressers) was 2 fold and the “reduction in clearance of progesterone in CYP3A5 nonexpressers” value ([5]; maternal, vs CYP3A5 expressers) was 5%. For the same molecule, the “Vmax for 16α-OHP formation” value (CYP17A1) was 0.12 nmol/h/mg protein, the “Vmax for 17α-OHP formation” value (CYP17A1) was 0.46 nmol/h/mg protein and the “Vmax for formation of 6β-OHP” value [2, 9] was 1640±111 pmol/min/mg protein. The “Vmax for formation of 16α-OHP” value [2, 9] was 192.1 ± 8.9 pmol/min/mg protein, the “6β-OHP formed, fetuses expressing active CYP3A5 relative to nonexpressers” value [6] was ~ 3 times and the “clearance from fetal liver relative to maternal liver” value [6] was “less than 0.1%”. For the same molecule, the “6β-OHP CLf” value [6, 10] was 0.19 L/h, the “16α-OHP CLf” value [6, 10] was 0.13 L/h and the “CLint, H” value [6, 10] was 0.32 L/h. The Km at 30 min (in vitro; pH 7.4, Km for formation of 6β-OHP) was 27.7 ± 8.1 µM, the Km at 30 min (in vitro; pH 7.4, Km for formation of 16α-OHP) was 29.8 ± 5.7 µM and the “6β-OHP Vmax” value (recombinant human CYP3A4) was 22.3 ± 1.1 (20.1–24.6) pmol/min/pmol protein. For the same molecule, the “6β-OHP CLint” value (recombinant human CYP3A4; recombinant enzyme) was 2.3 μL/min/pmol protein and the “enzymatic activity (CLint) for 6β-OHP, CYP3A4 relative to CYP3A5” value (recombinant human CYP3A4; recombinant enzyme) was 25 fold.

B1: recombinant human CYP3A5 (Homo sapiens) (protein)
chain: MDLIPNLAVETWLLLAVSLVLLYLYGTRTHGLFKRLGIPGPTPLPLLGNVLSYRQGLWKFDTECYKKYGKMWGTYEGQLPVLAITDPDVIRTVLVKECYSVFTNRRSLGPVGFMKSAISLAEDEEWKRIRSLLSPTFTSGKLKEMFPIIAQYGDVLVRNLRREAEKGKPVTLKDIFGAYSMDVITGTSFGVNIDSLNNPQDPFVESTKKFLKFGFLDPLFLSIILFPFLTPVFEALNVSLFPKDTINFLSKSVNRMKKSRLNDKQKHRLDFLQLMIDSQNSKETESHKALSDLELAAQSIIFIFAGYETTSSVLSFTLYELATHPDVQQKLQKEIDAVLPNKAPPTYDAVVQMEYLDMVVNETLRLFPVAIRLERTCKKDVEINGVFIPKGSMVVIPTYALHHDPKYWTEPEEFRPERFSKKKDSIDPYIYTPFGTGPRNCIGMRFALMNMKLALIRVLQNFSFKPCKETQIPLKLDTQGLLQPEKPIVLKVDSRDGTLSGE
For B1, the Km (not read) was 72.5 ± 24.3 (19.5–125) μM and 60.2 ± 11.9 (40.2–89.7) μM, the kcat (not read) was 0.00367 s⁻¹ and the kcat/Km (not read) was 50 M⁻¹ s⁻¹.

B2: recombinant human CYP3A7 (Homo sapiens) (protein)
chain: MDLIPNLAVETWLLLAVSLILLYLYGTRTHGLFKKLGIPGPTPLPFLGNALSFRKGYWTFDMECYKKYRKVWGIYDCQQPMLAITDPDMIKTVLVKECYSVFTNRRPFGPVGFMKNAISIAEDEEWKRIRSLLSPTFTSGKLKEMVPIIAQYGDVLVRNLRREAETGKPVTLKHVFGAYSMDVITSTSFGVSIDSLNNPQDPFVENTKKLLRFNPLDPFVLSIKVFPFLTPILEALNITVFPRKVISFLTKSVKQIKEGRLKETQKHRVDFLQLMIDSQNSKDSETHKALSDLELMAQSIIFIFAGYETTSSVLSFIIYELATHPDVQQKVQKEIDTVLPNKAPPTYDTVLQLEYLDMVVNETLRLFPVAMRLERVCKKDVEINGMFIPKGVVVMIPSYVLHHDPKYWTEPEKFLPERFSKKNKDNIDPYIYTPFGSGPRNCIGMRFALVNMKLALVRVLQNFSFKPCKETQIPLKLRFGGLLLTEKPIVLKAESRDETVSGA
In the case of B2, the Km [7] is reported as 43.8 ± 31.0 (6.4–199) μM and 44.4 ± 23.5 (15.1–116) μM, the kcat [7] is reported as 0.00167 s⁻¹ and 0.00333 s⁻¹ and the kcat/Km [7] is reported as 50 M⁻¹ s⁻¹ and 66.7 M⁻¹ s⁻¹.
